Data as given in US20060235006A1, “Combinations, methods and compositions for treating cancer” (priority 2005, published 2006).

Key:
[1] = system: K562 cells; assay: Cytotoxicity of dasatinib in proliferating vs quiescent K562 cells (FIG. 3); type: cell-based; settings: Homo sapiens
[2] = system: quiescent K562 cultures; settings: concentrations readily achievable in the clinic
[3] = system: K562 cells; assay: cells; settings: Homo sapiens, colony formation

## Cc1nc(Nc2ncc(C(=O)Nc3c(C)cccc3Cl)s2)cc(N2CCN(CCO)CC2)n1 [dasatinib, ′N-(2-Chloro-6-methylphenyl)-2-[[6-[4-(2-hydroxyethyl)-1-piperazinyl]-2-methyl-4-pyrimidinyl]amino]-5-thiazolecarboxamide]
[1]; K562, proliferating K562 cells (FIG. 3)
  IC50: 0.69 nM
[1]; K562, quiescent K562 cells (FIG. 3)
  IC50: > 11.2 nM
[2]
  % cell kill: 0%
[3]; K562, proliferating K562 cells
  IC50: < 1 nM
[3]; K562, quiescent K562 cultures (nutrient depletion)
  IC50: > 12 nM
